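In this assay, cells in 96-well plates receive the compound at five concentrations for 48 hours. Endpoints are linearly interpolated between the surrounding concentrations. GI50 = concentration required for 50% inhibition of growth.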 Active and inactive are the calls of the source. Cut-off read from the data, not from the text of the source: active = GI50 up to about 1.1 µM and inactive = higher.
Columns and labels:
Assay in all cases: NCI-60 cell line screen, 48 h
[1] = system: 786-0
[2] = system: A498
[3] = system: A549
[4] = system: ACHN
[5] = system: CAKI-1
[6] = system: CCRF-CEM
[7] = system: COLO 205
[8] = system: DMS-114
[9] = system: EKVX
[10] = system: HCC 2998
[11] = system: HCT-116
[12] = system: HCT-15
[13] = system: HL-60
[14] = system: HOP-18
[15] = system: HOP-62
[16] = system: HOP-92
[17] = system: HT-29
[18] = system: IGROV-1
[19] = system: K562
[20] = system: KM-20L2
[21] = system: KM12
[22] = system: LOX IMVI
[23] = system: LXFL 529
[24] = system: M14
[25] = system: M19-MEL
[26] = system: MOLT-4
[27] = system: Malme-3M
[28] = system: NCI-H226
[29] = system: NCI-H23
[30] = system: NCI-H460
[31] = system: NCI-H522
[32] = system: OVCAR-3
[33] = system: OVCAR-4
[34] = system: OVCAR-5
[35] = system: OVCAR-8
[36] = system: RPMI-8226
[37] = system: RXF 393
[38] = system: RXF 631
[39] = system: SF-268
[40] = system: SF-295
[41] = system: SF-539
[42] = system: SK-MEL-28
[43] = system: SK-MEL-2
[44] = system: SK-MEL-5
[45] = system: SK-OV-3
[46] = system: SN12C
[47] = system: SNB-19
[48] = system: SNB-75
[49] = system: SNB-78
[50] = system: SR
[51] = system: SW-620
[52] = system: TK-10
[53] = system: U-251
[54] = system: UACC-257
[55] = system: UACC-62
[56] = system: UO-31
[57] = system: DLD-1
[58] = system: DMS-273

O=C(N/C(=C/c1cccc([N+](=O)[O-])c1)c1nc2cc(Cl)ccc2[nH]1)c1ccccc1
GI50 [1]: 15.7 µM (inactive)
GI50 [2]: 13 µM (inactive)
GI50 [3]: 14.2 µM (inactive)
GI50 [4]: 11.3 µM (inactive)
GI50 [5]: 11.1 µM (inactive)
GI50 [6]: 1.07 µM (active)
GI50 [7]: 41.9 µM (inactive)
GI50 [8]: 8.51 µM (inactive)
GI50 [9]: 3.14 µM (inactive)
GI50 [10]: 23.1 µM (inactive)
GI50 [11]: 8.95 µM (inactive)
GI50 [12]: 6.01 µM
GI50 [13]: 1.99 µM (inactive)
GI50 [14]: 30.9 µM (inactive)
GI50 [15]: 17.7 µM (inactive)
GI50 [16]: 19.1 µM (inactive)
GI50 [17]: 8.95 µM (inactive)
GI50 [18]: 4.53 µM (inactive)
GI50 [19]: 6.21 µM (inactive)
GI50 [20]: 10.5 µM (inactive)
GI50 [21]: 5.41 µM (inactive)
GI50 [22]: 4.53 µM (inactive)
GI50 [23]: 12.6 µM (inactive)
GI50 [24]: 20.7 µM (inactive)
GI50 [25]: 24 µM (inactive)
GI50 [26]: 3.83 µM (inactive)
GI50 [27]: 12.8 µM (inactive)
GI50 [28]: 24.4 µM (inactive)
GI50 [29]: 11.4 µM (inactive)
GI50 [30]: 10.4 µM (inactive)
GI50 [31]: 4.07 µM (inactive)
GI50 [32]: 19.6 µM (inactive)
GI50 [33]: 17.4 µM (inactive)
GI50 [34]: 27.8 µM (inactive)
GI50 [35]: 7.5 µM (inactive)
GI50 [36]: 2.71 µM (inactive)
GI50 [37]: 12.4 µM (inactive)
GI50 [38]: 10.5 µM (inactive)
GI50 [39]: 11.7 µM (inactive)
GI50 [40]: 36.9 µM (inactive)
GI50 [41]: 3.51 µM (inactive)
GI50 [42]: 22.6 µM (inactive)
GI50 [43]: 16.1 µM (inactive)
GI50 [44]: 2.82 µM (inactive)
GI50 [45]: 17.3 µM (inactive)
GI50 [46]: 14.3 µM (inactive)
GI50 [47]: 36.3 µM (inactive)
GI50 [48]: 19.2 µM (inactive)
GI50 [49]: 39.9 µM (inactive)
GI50 [50]: 3.61 µM (inactive)
GI50 [51]: 5.55 µM (inactive)
GI50 [52]: 3.67 µM (inactive)
GI50 [53]: 9.73 µM (inactive)
GI50 [54]: 43.8 µM (inactive)
GI50 [55]: 5.4 µM (inactive)
GI50 [56]: 2.18 µM (inactive)

CCCCCCN(CCCCCC)C1=CC(=O)C(=O)c2ccccc21
GI50 [1]: 16.7 µM (inactive)
GI50 [2]: 26.5 µM (inactive)
GI50 [3]: 17.1 µM (inactive)
GI50 [4]: 17 µM (inactive)
GI50 [5]: 15 µM (inactive)
GI50 [6]: 14.9 µM (inactive)
GI50 [7]: 16.7 µM (inactive)
GI50 [57]: 15.2 µM (inactive)
GI50 [58]: 19.8 µM (inactive)
GI50 [9]: 14.6 µM (inactive)
GI50 [10]: 20.9 µM (inactive)
GI50 [11]: 17.5 µM (inactive)
GI50 [12]: 17.7 µM
GI50 [13]: 10.1 µM (inactive)
GI50 [14]: 16.1 µM (inactive)
GI50 [15]: 18.7 µM (inactive)
GI50 [16]: 14.5 µM (inactive)
GI50 [17]: 15.1 µM (inactive)
GI50 [18]: 17.2 µM (inactive)
GI50 [19]: 17.1 µM (inactive)
GI50 [20]: 18.2 µM (inactive)
GI50 [21]: 17.6 µM (inactive)
GI50 [22]: 8.49 µM (inactive)
GI50 [23]: 19.3 µM (inactive)
GI50 [24]: 18.3 µM (inactive)
GI50 [25]: 2.26 µM (inactive)
GI50 [26]: 18.7 µM (inactive)
GI50 [27]: 21.3 µM (inactive)
GI50 [28]: 17.3 µM (inactive)
GI50 [29]: 11.5 µM (inactive)
GI50 [30]: 17.3 µM (inactive)
GI50 [31]: 11.6 µM (inactive)
GI50 [32]: 3.55 µM (inactive)
GI50 [33]: 15.4 µM (inactive)
GI50 [34]: 19.1 µM (inactive)
GI50 [35]: 16.1 µM (inactive)
GI50 [36]: 16.7 µM (inactive)
GI50 [37]: 25.1 µM (inactive)
GI50 [38]: 14.7 µM (inactive)
GI50 [39]: 18.7 µM (inactive)
GI50 [40]: 15.7 µM (inactive)
GI50 [41]: 17.2 µM (inactive)
GI50 [42]: 17.6 µM (inactive)
GI50 [43]: 18.7 µM (inactive)
GI50 [44]: 17.2 µM (inactive)
GI50 [45]: 17.7 µM (inactive)
GI50 [46]: 16.4 µM (inactive)
GI50 [47]: 16.1 µM (inactive)
GI50 [48]: 16.8 µM (inactive)
GI50 [49]: 23 µM (inactive)
GI50 [50]: 15.8 µM (inactive)
GI50 [51]: 14.2 µM (inactive)
GI50 [52]: 21.7 µM (inactive)
GI50 [53]: 15.8 µM (inactive)
GI50 [54]: 15.2 µM (inactive)
GI50 [55]: 16.5 µM (inactive)
GI50 [56]: 13.4 µM (inactive)

Reference: ChEMBL document CHEMBL1201862, “PubChem BioAssay data set” (2004)
